According to ChEMBL document CHEMBL1201862, “PubChem BioAssay data set” (2004):
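A five-concentration, 48-hour dose response in 96-well plates underlies each endpoint, interpolated linearly between surrounding concentrations. GI50 = concentration required for 50% inhibition of growth.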 Active and inactive are the calls of the source. Cut-off read from the data, not from the text of the source: active = GI50 up to about 1.1 µM and inactive = higher.

Columns and labels:
Assay in all cases: inhibition of tumour cell growth, NCI panel, 48 h
[1] = tested on: MDA-MB-231
[2] = tested on: MDA-N
[3] = tested on: DLD-1
[4] = tested on: DMS-273
[5] = tested on: HOP-18
[6] = tested on: KM-20L2
[7] = tested on: LXFL 529
[8] = tested on: SNB-78

| SMILES | GI50 [1] | GI50 [2] | further results |
| --- | --- | --- | --- |
| Cc1c(O)c(OC2OC(CO)C(O)C(O)C2O)cc2c1C=C[C@@H]1[C@@]2(C)C(=O)C[C@]2(C)[C@@H]([C@@](C)(O)C(=O)CCC(C)(C)O)[C@H](O)C[C@@]12C (some centres undefined) | 21.1 µM (inactive) | 27.9 µM (inactive) |  |
| COc1ccc(S(=O)(=O)N2C(=O)CCC2C(=O)NC(N)=O)cc1 (centres undefined) | > 100 µM (inactive) | > 100 µM (inactive) |  |
| COc1cc2c(c(OC)c1OC)C(=O)CC2N (centres undefined) | > 100 µM (inactive) |  |  |
| Cn1c(=O)c2ccccc2[n+]2c(-c3cccc([N+](=O)[O-])c3)csc12 | 30.8 µM (inactive) | 76.6 µM (inactive) |  |
| CC(C)=CCCC1(Sc2ccccc2)C(=O)OCC1C=C(C)C (centres undefined) | 47.2 µM (inactive) | 19.9 µM (inactive) |  |
| CC1=Nc2c(C#N)ncn2N=C(C)C1 | > 100 µM (inactive) | > 100 µM (inactive) |  |
| OCCCc1cc(O)c2c(c1)C(CO)C(c1ccc(O)c(O)c1)O2 (centres undefined) | > 100 µM (inactive) | > 100 µM (inactive) |  |
| COc1cc(CC2c3cc(OC)c(OC)cc3CCN2C)c(Oc2cc3c(cc2OC)-c2c(O)c(OC)cc4c2C(C3)N(C)CC4)cc1OC (centres undefined) | 18.3 µM (inactive) | 16.7 µM (inactive) |  |
| CN(C)CCNS(=O)(=O)N(C)C | > 100 µM (inactive) | > 100 µM (inactive) |  |
| O=c1[nH]c(=S)c2cc3c(=S)[nH]c(=O)n(CCC(c4ccccc4)(c4ccccc4)c4ccccc4)c3nc2n1CCC(c1ccccc1)(c1ccccc1)c1ccccc1 | 59.4 µM (inactive) | > 100 µM (inactive) |  |
| C1=CC2CCC1CN2CCC1CNc2ccccc21 (centres undefined) |  |  | GI50 [3]: > 100 µM (inactive); GI50 [4]: > 100 µM (inactive); GI50 [5]: > 100 µM (inactive); GI50 [6]: > 100 µM (inactive); GI50 [7]: > 100 µM (inactive); GI50 [8]: > 100 µM (inactive) |
| CCOC(=O)/C=C/CCC(C)(C)COC(C)=O | > 10 µM (inactive) | > 10 µM (inactive) |  |
| CC1=NN(c2nc(N)nc(C(C)Cl)n2)C(C)(C)C1 (centres undefined) | > 100 µM (inactive) |  |  |
| Cc1cn(C2CC(SCCO)C(CO)O2)c(=O)[nH]c1=O (centres undefined) | > 100 µM (inactive) | > 100 µM (inactive) |  |
| Cn1cnc(S[C@H]2[C@H]3C(=O)C=C4S[C@H]5C[C@]42C2=C(N5)C(=O)c4[nH]cc5c4C2=[N+]3CC5)c1C[C@H](N)C(=O)O |  |  | GI50 [3]: 17.2 µM (inactive); GI50 [4]: 12.7 µM (inactive); GI50 [5]: 52.1 µM (inactive); GI50 [6]: 4.47 µM (inactive); GI50 [7]: 14.1 µM (inactive); GI50 [8]: 20.9 µM (inactive) |
| CCOC(=O)C(C(=O)OCC)=C1NC2(c3ccccc3Nc3ccc(C)cc32)C(C#N)S1 (centres undefined) |  | 10.6 µM (inactive) |  |
| Nc1c(C(=O)NC23CC4CC(CC(C4)C2)C3)[n+]([O-])c2ccccc2[n+]1[O-] |  |  | GI50 [3]: > 100 µM (inactive); GI50 [4]: > 100 µM (inactive); GI50 [5]: > 100 µM (inactive); GI50 [6]: > 100 µM (inactive); GI50 [7]: > 100 µM (inactive); GI50 [8]: > 100 µM (inactive) |
| CN1CNc2nc(N)n(C)c(=O)c2C1 |  | > 10 µM (inactive) |  |

| SMILES | GI50 [1] | GI50 [2] | further results |
| --- | --- | --- | --- |
| C/C=C(/C)C(=O)O[C@H](C[C@@H](C)[C@H]1CC(c2ccoc2)OC1=O)[C@@]1(C)C(=O)CCC2O[C@]21C (some centres undefined) | > 100 µM (inactive) | > 100 µM (inactive) |  |
| COC(=O)C12CC3CC(C1)CC(C(=O)OC)(C3)C2 |  |  | GI50 [3]: > 100 µM (inactive); GI50 [4]: > 100 µM (inactive); GI50 [5]: > 100 µM (inactive); GI50 [6]: > 100 µM (inactive); GI50 [7]: > 100 µM (inactive); GI50 [8]: > 100 µM (inactive) |
| Cc1c2ccncc2c(C)c2c1[nH]c1ccc(OC(C)C)cc12 |  |  | GI50 [3]: 1.35 µM (inactive); GI50 [4]: 0.681 µM (active); GI50 [5]: 0.318 µM (active); GI50 [6]: 1.18 µM (inactive); GI50 [7]: 0.787 µM (active); GI50 [8]: 2.89 µM (inactive) |
| Cc1ccc(OCC2OC(n3cnc4c(Cl)nc(Nc5cc(Cl)cc(Cl)c5)nc43)CC2Oc2ccc(C)cc2)cc1 (centres undefined) | > 100 µM (inactive) | > 100 µM (inactive) |  |
| FC(F)(F)c1ccc(/N=C/C=C(/Nc2ccc(C(F)(F)F)cc2)c2ccc(Cl)cc2)cc1 | 14.5 µM (inactive) |  |  |
| CN(C)c1ccc(/C=C2\N=C(NNc3ccccc3)NC2=O)cc1 | 13.7 µM (inactive) | 27.7 µM (inactive) |  |
| COc1ccc(/C=C2/NC(=S)N=C2Cl)cc1 | > 100 µM (inactive) | > 100 µM (inactive) |  |
| NC(CSc1nc2ccccn2c1[N+](=O)[O-])C(=O)O (centres undefined) | > 100 µM (inactive) | > 100 µM (inactive) |  |
| C1CNOCCCONCCCNOCCCONC1 | 26.8 µM (inactive) | > 100 µM (inactive) |  |
| CCOC(=O)C1(N)CC1 | > 100 µM (inactive) | > 100 µM (inactive) |  |
| O=C1C(NCCN2CCOCC2)=C(Cl)C(=O)c2ncccc21 | 1.58 µM (inactive) | 0.178 µM (active) |  |
| CC(C)CCC[C@@H](C)[C@H]1CC[C@H]2[C@@H]3CC[C@H]4C[C@H](N)CC[C@]4(C)[C@H]3CC[C@]12C | 2.84 µM (inactive) | 30.9 µM (inactive) |  |
| C=CCOC(=O)N1c2ccc(O[Si](C)(C)C(C)(C)C)cc2[C@@]23O[C@@]24[C@@H]1C#C/C=C\C#C[C@]3(O)C(OC)(OC)C[C@@H]4C | > 100 µM (inactive) | > 57.5 µM (inactive) |  |
| O=C1CNc2cc(N3CCN(c4ccccc4)CC3)ccc2N1 | > 100 µM (inactive) |  |  |
| CCc1cc2c(oc3c4ccccc4ccc23)c(=O)[nH]1 |  | > 10 µM (inactive) |  |
| COC1O[C@@H]2CCN3C(=O)[C@@H](OC(=O)c4ccc([N+](=O)[O-])cc4)[C@H]1C23 (some centres undefined) | > 100 µM (inactive) |  |  |
| O=C(O)CS(=O)(=O)C(c1ccccc1)c1ccccc1 | > 100 µM (inactive) | > 100 µM (inactive) |  |
| COc1ccnc2c1C(=O)c1nc3ccccc3c3ccnc-2c13 | 0.21 µM (active) | 0.25 µM (active) |  |
